Tested on: myoblasts
Assay: Culture of hES-derived clonal myoblasts with or without the TGFβ inhibitor
Assay type: cell-based, human
Details: removal of SB431542 together with switch from Matrigel to gelatin substrate (FIG. 11)
Description: FIG. 11 is a photomicrograph showing myoblasts grown on Matrigel® in the presence of a TGFβ inhibitor (SB431542)(top) and myoblasts switched to gelatin without the TGFβ inhibitor.

NC(=O)c1ccc(-c2nc(-c3ccc4c(c3)OCO4)c(-c3ccccn3)[nH]2)cc1 [SB431542]
proliferation of myoblasts: increased proliferation
